Target: Acyl-CoA : cholesterol acyltransferase (ACAT)
Experiment: Acyl-CoA : cholesterol acyltransferase (ACAT) inhibitory activity
Assay type: biochemical, Japanese white rabbits
Settings: enzyme from mucosal microsome fraction of small intestine of rabbits fed 2% cholesterol diet; [14C]oleoyl-CoA and endogenous cholesterol, 37°C for 5 minutes
Procedure: Acyl-CoA : cholesterol acyltransferase (ACAT) inhibitory activity
ACAT activity was measured by the method of Heider et al. described in Journal of Lipid Research, Vol. 24, page 1127 (1983). The enzyme ACAT was prepared from the mucosal microsome fraction of the small intestine of male, 18-week old Japanese white rabbits which had been fed diet containing 2% cholesterol for 8 weeks. The inhibitory activity of compounds were calculated by measuring the amount of the labeled cholesterol ester produced from [¹⁴C]oleoyl-CoA and endogenous cholesterol as follows. [¹⁴C]oleoyl-CoA and microsome were incubated with test compounds at 37°C for 5 minutes. The reaction was stopped by the addition of chloroform-methanol (2:1, V/V). Cholesterol ester fraction in the chloroform-methanol extracts was isolated by thin-layer chromatography and was counted their label.

Structure (SMILES)	IC50
CCCCCCCN(Cc1cc2ccccc2o1)C(=O)Nc1c(F)cc(F)cc1F [Example 3 - (9), N-(Benzofuran-2-ylmethyl)-N-heptyl-N'-(2,4,6-trifluorophenyl)urea]	73 nM
Cc1ccc2oc(CN(Cc3ccccc3)C(=O)Nc3c(F)cc(F)cc3F)c(-c3ccc(Cl)cc3)c2c1 [Example 6 - (2), N-Benzyl-N-[3-(4-chlorophenyl)-5-methylbenzofuran-2-ylmethyl]-N'-(2,4,6-trifluorophenyl)urea]	7.4 nM
Cc1ccc(CN(Cc2oc3ccc(C)cc3c2-c2ccc(Cl)cc2)C(=O)Nc2c(F)cc(F)cc2F)cc1 [Example 6 - (7), N-[3-(4-Chlorophenyl)-5-methylbenzofuran-2-ylmethyl]-N-(4-methylbenzyl)-N'-(2,4,6-trifluorophenyl)urea]	4.4 nM
Cc1ccc(-c2c(CN(Cc3ccccc3)C(=O)Nc3c(F)cc(F)cc3F)oc3ccc(Cl)cc23)cc1 [Example 6 - (6), N-Benzyl-N-[5-chloro-3-(4-methylphenyl)benzofuran-2-ylmethyl]-N'-(2,4,6-trifluorophenyl)urea]	8.4 nM
Cc1ccc2oc(CN(Cc3ccc(F)cc3)C(=O)Nc3c(F)cc(F)cc3F)c(-c3ccc(Cl)cc3)c2c1 [Example 5 - (7), N-[3-(4-Chlorophenyl)-5-methylbenzofuran-2-ylmethyl]-N-(4-fluorobenzyl)-N'-(2,4,6-trifluorophenyl)urea]	8.8 nM
O=C(Nc1c(F)cc(F)cc1F)N(Cc1oc2ccccc2c1-c1ccccc1)C1CCCCCC1 [Example 3 - (10), N-Cycloheptyl-N-(3-phenylbenzofuran-2-ylmethyl)-N'-(2,4,6-trifluorophenyl)urea]	24 nM
Cc1ccc2oc(CN(Cc3ccco3)C(=O)Nc3c(F)cc(F)cc3F)c(-c3ccc(Br)cc3)c2c1 [Example 5 - (15), N-[3-(4-Bromophenyl)-5-methylbenzofuran-2-ylmethyl]-N-furfuryl-N'-(2,4,6-trifluorophenyl)urea]	8.9 nM
CCCCCCCN(Cc1oc2ccc(CC)cc2c1-c1ccc(Cl)cc1)C(=O)Nc1c(F)cc(F)cc1F [Example 3 - (35), N-[3-(4-Chlorophenyl)-5-ethylbenzofuran-2-ylmethyl]-N-heptyl-N'-(2,4,6-trifluorophenyl)urea]	6.6 nM
